Experimental data reported in patent US9133170B2, “Inhibitors of HCV NS5A” (priority 2011, dated 2015).

test system: GT-1a pRLuc H77 1b 75 S/I subgenomic replicon cell line; test: HCV GT-1a subgenomic replicon Renilla luciferase reporter assay; assay type: cell-based; conditions: Hepatitis C virus, GT1A, Huh-7, 72 h, read-out: GT-1a-IC50
Excerpt: Determination of compounds HCV GT1b inhibitory replicon activity using the replicon luciferase reporter assay
The 2209-23 cell line was developed at Roche by stable transfection of the hepatoma cell line Huh-7 with a GT-1b Con1 subgenomic bicistronic replicon as previously described. Subgenomic replicon cell line was established in cured Huh7 cells, obtained from R. Bartenschlager (J Virol. 2003 March; 77 (5):3007-19) The GT-1a H77 subgenomic replicon vector pRLuc H77 1b 75 S/I, was created by replacing the non structural region of the GT-1b Con1 subgenomic replicon by the one of the H77 strain, except for the first 75 amino acids of the NS3 protein that are from GT-1b Con1 strain. (J Virol. 2001 77:5352-59) The GT-1a pRLuc H77 1b 75 S/I subgenomic replicon cell line was established in cured Huh7 cells, obtained from R. Bartenschlager (J Virol. 2003 March; 77 (5):3007-19).
All the subgenomic replicon cell lines were cultured in Dulbecco's Modified Eagle Medium (DMEM-Glutamax™-I; Invitrogen Cat #10569-010). The medium was supplemented with 10% Fetal Bovine Serum (Invitrogen Cat #10082-147), 1% penicillin/streptomycin (Mediatech Cat # 30-002-CI) and 500 μg/ml of G418 (Mediatech Cat #30-234-CI). Cells were maintained at 37° C. in a humidified 5% CO2 atmosphere.
2209-23 cells were plated at a cell density of 5000 cells per well in 96 well plates (Becton Dickinson, Cat #35 3296). Cells were plated in 90 μl of Dulbecco's Modified Eagle Medium (DMEM-Glutamax™-I), (Invitrogen Cat #10569-010) medium was supplemented with 5% Fetal Bovine Serum (Invitrogen Cat #10082-147), 1% penicillin/streptomycin (Mediatech Cat #30-002-CI). The pRluc H77 1b 75 S/I cells were plated in 96-well plate at 3000 cells/well in DMEM-Glutamax™-I containing 5% FBS and 1% penicillin/streptomycin in 90 μl final volume. Cells were allowed to equilibrate for 24 hours at 37° C. and 5% CO2 at which time compounds were added. Compounds (or medium as a control) were added 24 hours post-plating in 3 fold dilutions at a final DMSO concentration of 1% in 10 ul volume. Renilla luciferase reporter signal was read 72 hours after addition of compounds using the Renilla Luciferase Assay System (Promega, cat #E2820). EC50 values were defined as the compound concentration at which a 50% reduction in the levels of renilla luciferase reporter was observed as compared to control samples in the absence of compound and was determined by non-linear fitting of compound dose-response data. The EC50 was approximated if maximum percentage inhibition was less than 90% and more than 70%.

| Compound | IC50 [nM] |
| --- | --- |
| COC(=O)N[C@H]1CCc2cccc3c2N(C1=O)[C@H](C(=O)N1CCC[C@H]1C(=O)Nc1ccc(-c2ccc(-c4cnc([C@@H]5CCCN5C(=O)[C@@H](NC(=O)OC)C(C)C)[nH]4)cc2)cc1)C3 [Compound I-1, {(2S,5S)-2-[(S)-2-(4′-{2-[(S)-1-((S)-2-Methoxycarbonylamino-3-methyl-butyryl)-pyrrolidin-2-yl]-3H-imidazol-4-yl}-biphenyl-4-ylcarbamoyl)-pyrrolidine-1-carbonyl]-4-oxo-1,2,4,5,6,7-hexahydro-azepino[3,2,1-hi]indol-5-yl}-carbamic acid methyl ester] | 8.38 |
| COC(=O)N[C@H]1CCC(=O)N2CCC[C@@H](C(=O)N3CCC[C@H]3C(=O)Nc3ccc(-c4ccc(-c5cnc([C@@H]6CCCN6C(=O)[C@@H](NC(=O)OC)C(C)C)[nH]5)cc4)cc3)N2C1=O [Compound I-2, {(4S,7S)-4-[(S)-2-(4′-{2-[(S)-1-((S)-2-Methoxycarbonylamino-3-methyl-butyryl)-pyrrolidin-2-yl]-3H-imidazol-4-yl}-biphenyl-4-ylcarbamoyl)-pyrrolidine-1-carbonyl]-6,10-dioxo-octahydro-pyridazino[1,2-a][1,2]diazepin-7-yl}-carbamic acid methyl ester] | 190 |
| COC(=O)N[C@H]1CCc2cccc3c2N(C1=O)[C@H](C(=O)N1CCC[C@H]1C(=O)Nc1ccc(-c2ccc(-c4cnc([C@@H]5CC(F)(F)CN5C(=O)[C@@H](NC(=O)OC)C(C)C)[nH]4)cc2)cc1)C3 [Compound I-3, {(2S,5S)-2-[(S)-2-(4′-{2-[(S)-1-((S)-2-Methoxycarbonylamino-3-methyl-butyryl)-4,4-difluoropyrrolidin-2-yl]-3H-imidazol-4-yl}-biphenyl-4-ylcarbamoyl)-pyrrolidine-1-carbonyl]-4-oxo-1,2,4,5,6,7-hexahydro-azepino[3,2,1-hi]indol-5-yl}-carbamic acid methyl ester] | 147 |
| COC(=O)N[C@H]1CCc2cccc3c2N(C1=O)[C@H](C(=O)N1CCC[C@H]1C(=O)Nc1ccc(-c2ccc(-c4[nH]c([C@@H]5CCCN5C(=O)[C@@H](NC(=O)OC)C(C)C)nc4Cl)cc2)cc1)C3 [Compound I-4, {(2S,5S)-2-[(S)-2-(4′-{5-Chloro-2-[(S)-1-((S)-2-methoxycarbonylamino-3-methyl-butyryl)-pyrrolidin-2-yl]-3H-imidazol-4-yl}-biphenyl-4-ylcarbamoyl)-pyrrolidine-1-carbonyl]-4-oxo-1,2,4,5,6,7-hexahydro-azepino[3,2,1-hi]indol-5-yl}-carbamic acid methyl ester] | 1.38 |
| COC(=O)N[C@H](C(=O)N1CCC[C@H]1C(=O)N1CCC[C@H]1C(=O)Nc1ccc(-c2ccc(-c3cnc([C@@H]4CCCN4C(=O)[C@@H](NC(=O)OC)C(C)C)[nH]3)cc2)cc1)C(C)C [Compound I-5, ((S)-1-{(S)-2-[(S)-2-(4′-{2-[(S)-1-((S)-2-Methoxycarbonylamino-3-methyl-butyryl)-pyrrolidin-2-yl]-3H-imidazol-4-yl}-biphenyl-4-ylcarbamoyl)-pyrrolidine-1-carbonyl]-pyrrolidine-1-carbonyl}-2-methyl-propyl)-carbamic acid methyl ester] | 4.87 |
| COC(=O)N[C@H](C(=O)N1CCC[C@H]1c1ncc(-c2ccc(-c3ccc(NC(=O)[C@@H]4CCCN4C(=O)[C@@H]4CCCN4C(=O)[C@H](NC(=O)OC)c4ccccc4)cc3)cc2)[nH]1)C(C)C [Compound I-6, [(S)-1-((S)-2-{5-[4′-({(S)-1-[(S)-1-((R)-2-Methoxycarbonylamino-2-phenyl-acetyl)-pyrrolidine-2-carbonyl]-pyrrolidine-2-carbonyl}-amino)-biphenyl-4-yl]-1H-imidazol-2-yl}-pyrrolidine-1-carbonyl)-2-methyl-propyl]-carbamic acid methyl ester] | 69.9 |
